Structures can show the parent of a compound that is named as a salt.
Tests used:
Type in all cases: cell-based
[1] = system: Marburg virus (MARV); assay: organism not typed; details: Vero, 72 h, read-out: Percent viral inhibition MARV
[2] = system: Chikungunya virus (CHIKV); assay: microbe, parasite or virus in culture; details: Chikungunya virus, Vero, 48 h, read-out: Percent viral inhibition CHKV
[3] = system: dengue virus (DENV); assay: microbe, parasite or virus in culture; details: Dengue virus, Vero, 120 h, read-out: Percent viral inhibition DENY

Row | Compound | inhibition at 1 µM [1] [%] | inhibition at 1 µM [2] [%] | inhibition at 1 µM [3] [%]
1 | CNC(=O)CN1CCN(Cc2cc(Oc3ccc(N4CCNCC4)nc3)nc(-c3cc(Cl)cc(Cl)c3)c2)CC1 [Example 1, 2-(4-((2-(3,5-dichlorophenyl)-6-((6-(piperazin-1-yl)pyridin-3-yl)oxy)pyridin-4-yl)methyl)piperazin-1-yl)-N-methylacetamide] | 0 | 6.99 | 0
2 | CC(=O)NCC1(O)CCN(Cc2cc(Oc3ccc(N4CCNCC4)nc3)nc(-c3cc(Cl)cc(Cl)c3)c2)CC1 [Example 2, N-((1-((2-(3,5-dichlorophenyl)-6-((6-(piperazin-1-yl)pyridin-3-yl)oxy)pyridin-4-yl)methyl)-4-hydroxy-piperidin-4-yl)methyl)acetamide] | 60.4 | 33.8 | 34.3
3 | O=C(O)CC1CCN(Cc2cc(Oc3ccc(N4CCNCC4)nc3)nc(-c3cc(Cl)cc(Cl)c3)c2)CC1 [Example 4, 2-(1-((2-(3,5-dichlorophenyl)-6-((6-(piperazin-1-yl)pyridin-3-yl)oxy)pyridin-4-yl)methyl)piperidin-4-yl) acetic acid] | 70.8 | 18.4 | 16.6
4 | COC(=O)NCC1(O)CCN(Cc2cc(Oc3ccc(N4CCNCC4)nc3)nc(-c3cc(Cl)cc(Cl)c3)c2)CC1 [Example 6, methyl ((1-((2-(3,5-dichlorophenyl)-6-((6-(piperazin-1-yl)pyridin-3-yl)oxy)pyridin-4-yl)methyl)-4-hydroxypiperidin-4-yl)methyl)carbamate] | 0 | 0 | 0
5 | O=S(=O)(O)CCC1CCN(Cc2cc(Oc3ccc(N4CCNCC4)nc3)nc(-c3cc(Cl)cc(Cl)c3)c2)CC1 [Example 7, 2-(1-((2-(3,5-dichlorophenyl)-6-((6-(piperazin-1-yl)pyridin-3-yl)oxy)pyridin-4-yl)methyl)piperidin-4-yl) ethanesulfonic acid] | 51.9 | 9.36 | 12.9
6 | O=S(=O)(O)CC1CCN(Cc2cc(Oc3ccc(N4CCNCC4)nc3)nc(-c3cc(Cl)cc(Cl)c3)c2)CC1 [Example 8, (1-((2-(3,5-dichlorophenyl)-6-((6-(piperazin-1-yl)pyridin-3-yl)oxy)pyridin-4-yl)methyl)piperidin-4-yl)methanesulfonic acid] | 10.9 | 1.77 | 14.7
7 | CC(=O)NCC1CCN(Cc2cc(Oc3ccc(N4CCN(CC(=O)O)CC4)nc3)nc(-c3cc(Cl)cc(Cl)c3)c2)CC1 [Example 10] | 34.8 | 13.1 | 8.5
8 | CC(=O)NCC1CCN(Cc2cc(Oc3ccc(N4CCN(CCC(=O)O)CC4)nc3)nc(-c3cc(Cl)cc(Cl)c3)c2)CC1 [Example 11, 3-(4-(5-((4-((4-(Acetamidomethyl)piperidin-1-yl)methyl)-6-(3,5-dichlorophenyl)pyridin-2-yl)oxy)pyridin-2-yl)piperazin-1-yl)propanoic acid, 4 hydrochloride] | 41.6 | 17.9 | 30.2
9 | CC(=O)NCC1CCN(Cc2cc(Oc3ccc(N4CCN(CCS(C)(=O)=O)CC4)nc3)nc(-c3cc(Cl)cc(Cl)c3)c2)CC1 [Example 12, N-((1-((2-(3,5-dischlorophenyl)-6-((6-(4-(2-(methylsulfonyl)ethyl)piperazin-1-yl)pyridin-3-yl)oxy)pyridin-4-yl)methyl)piperidin-4-yl)methyl)acetamide] | 44.5 | 24.7 | 58.3
10 | CC(=O)NCC1CCN(Cc2cc(Oc3ccc(N4CCN(CCC(N)=O)CC4)nc3)nc(-c3cc(Cl)cc(Cl)c3)c2)CC1 [Example 13, 3-(4-(5-((4-((4-(acetamidomethyl)piperidin-1-yl)methyl)-6-(3,5-dichlorophenyl)pyridin-2-yl)oxy)pyridin-2-yl)piperazin-1-yl)propanamide] | 25.4 | 15.9 | 26.5
11 | CC(=O)NCC1CCN(Cc2cc(Oc3ccc(N4CCN(CCc5nnn[nH]5)CC4)nc3)nc(-c3cc(Cl)cc(Cl)c3)c2)CC1 [Example 14] | 17.3 | 3.02 | 0
12 | CC(=O)NCC1CCN(Cc2cc(Oc3ccc(N4CCN(C(C)CCS(C)(=O)=O)CC4)nc3)nc(-c3cc(Cl)cc(Cl)c3)c2)CC1 (stereo not drawn) [Example 16] | 28.6 | 4.14 | 41.7
13 | CNC(=O)NCC1CCN(Cc2cc(Oc3cnc(N4CCN(CCC(C)[S+](C)[O-])CC4)nc3)nc(-c3cc(Cl)cc(Cl)c3)c2)CC1 (stereo not drawn) [Example 17, 1-((1-((2-(3,5-chlorophenyl)-6-((2-(4-(3-(methylsulfinyl)butyl)piperazin-1-yl)pyrimidin-5-yl)oxy)pyridin-4-yl)methyl)piperidin-4-yl)methyl)-3-methylurea] | 52.9 | 7.16 | 57.4
14 | CC(=O)NCC1CCN(Cc2cc(Oc3cnc(N4CCN(C(C)CCS(C)(=O)=O)CC4)nc3)nc(-c3cc(Cl)cc(Cl)c3)c2)CC1 (stereo not drawn) [Example 19, N-((1-((2-(3,5-dichlorophenyl)-6-((2-(4-(4-(methylsulfonyl)butan-2-yl)piperazin-1-yl)pyrimidin-5-yl)oxy)pyridin-4-yl)methyl)piperidin-4-yl)methyl)acetamide] | 79.8 | 21.6 | 35.5
15 | CC(CO)N1CCN(c2ncc(Oc3cc(CN4CCC(CC(=O)O)CC4)cc(-c4cc(Cl)cc(Cl)c4)n3)cn2)CC1 (stereo not drawn) [Example 21, 2-(1-((2-(3,5-dichlorophenyl)-6-((2-(4-(1-hydroxypropan-2-yl)piperazin-1-yl)pyrimidin-5-yl)oxy)pyridin-4-yl)methyl)piperidin-4-yl)acetic acid] | 46.4 | 26.2 | 8.18
16 | O=C(O)CC1CCN(Cc2cc(Oc3cnc(N4CCN(C5CC(O)C5)CC4)nc3)nc(-c3cc(Cl)cc(Cl)c3)c2)CC1 (stereo not drawn) [Example 22, 2-(1-((2-(3,5-dichlorophenyl)-6-((2-(4-(3-hydroxycyclobutyl)piperazin-1-yl)pyrimidin-5-yl)oxy)pyridin-4-yl)methyl)piperidin-4-yl)acetic acid] | 52.5 | 26.8 | 64.4
17 | O=C(O)CC1CCN(Cc2cc(Oc3cnc(N4CCN(C(CO)CO)CC4)nc3)nc(-c3cc(Cl)cc(Cl)c3)c2)CC1 [Example 23, 2-(1-((2-(3,5-dichlorophenyl)-6-((2-(4-(1,3-dihydroxypropan-2-yl)piperazin-1-yl)pyrimidin-5-yl)oxy)pyridin-4-yl)methyl)piperidin-4-yl)acetic acid] | 52.5 | 21.6 | 11
18 | C[C@]1(O)C[C@@H](N2CCN(c3ncc(Oc4cc(CN5CCC(CC(=O)O)CC5)cc(-c5cc(Cl)cc(Cl)c5)n4)cn3)CC2)C1 [Example 24, 2-(1-((2-(3,5-dichlorophenyl)-6-((2-(4-((1s,3s)-3-hydroxy-3-methylcyclobutyl)piperazin-1-yl)pyrimidin-5-yl)oxy)pyridin-4-yl)methyl)piperidin-4-yl)acetic acid] | 63.1 | 34.6 | 25.8
19 | C[C@]1(O)C[C@H](N2CCN(c3ncc(Oc4cc(CN5CCC(CC(=O)O)CC5)cc(-c5cc(Cl)cc(Cl)c5)n4)cn3)CC2)C1 [Example 25, 2-(1-((2-(3,5-dichlorophenyl)-6-((2-(4-((1r,3r)-3-hydroxy-3-methylcyclobutyl)piperazin-1-yl)pyrimidin-5-yl)oxy)pyridin-4-yl)methyl)piperidin-4-yl)acetic acid] | 65.5 | 26.3 | 13.7
20 | CC(=O)NCC1CCN(Cc2cc(Oc3ccc(N4CCN([C@H]5C[C@@H](NS(C)(=O)=O)C5)CC4)nc3)nc(-c3cc(Cl)cc(Cl)c3)c2)CC1 [Example 27, N-((1-((2-(3,5-dichlorophenyl)-6-((6-(4-((cis)-3-(methylsulfonamido)cyclobutyl)piperazin-1-yl)pyridin-3-yl)oxy)pyridin-4-yl)methyl)piperidin-4-yl)methyl)acetamide] | 50.3 | 26.8 | 51.1
21 | CC(=O)NCC1CCN(Cc2cc(Oc3ccc(N4CCN(CCP(=O)(O)O)CC4)nc3)nc(-c3cc(Cl)cc(Cl)c3)c2)CC1 [Example 30, (2-(4-(5-((4-((4-(acetamidomethyl)piperidin-1-yl)methyl)-6-(3,5-dichlorophenyl)pyridin-2-yl)oxy)pyridin-2-yl)piperazin-1-yl)ethyl)phosphonic acid] | 15.5 | 10.1 | 44.3
22 | CC(=O)NCC1CCN(Cc2cc(Oc3ccc(N4CCN(CCOC(N)=O)CC4)nc3)nc(-c3cc(Cl)cc(Cl)c3)c2)CC1 [Example 31, 2-(4-(5-((4-((4-(acetamidomethyl)piperidin-1-yl)methyl)-6-(3,5-dichlorophenyl)pyridin-2-yl)oxy)pyridin-2-yl)piperazin-1-yl)ethylcarbamate] | 61.4 | 18.7 | 38.9
23 | CC(=O)NCC1CCN(Cc2cc(Oc3ccc(N4CCN(CCN(C)S(C)(=O)=O)CC4)nc3)nc(-c3cc(Cl)cc(Cl)c3)c2)CC1 [Example 32, N-((1-((2-(3,5-dichlorophenyl)-6-((6-(4-(2-(N-methylmethylsulfonamido)ethyl)piperazin-1-yl)pyridin-3-yl)oxy)pyridin-4-yl)methyl)piperidin-4-yl)methyl)acetamide] | 63.5 | 49.4 | 34.2
24 | CC(=O)NCC1CCN(Cc2cc(Oc3ccc(N4CCN(C(=O)CCC(=O)O)CC4)nc3)nc(-c3cc(Cl)cc(Cl)c3)c2)CC1 [Example 33, 4-(4-(5-((4-((4-(acetamidomethyl)piperidin-1-yl)methyl)-6-(3,5-dichlorophenyl)pyridin-2-yl)oxy)pyridin-2-yl)piperazin-1-yl)-4-oxobutanoic acid] | 67.3 | 36.5 | 49.4

— patent US20230011571A1, “SMALL MOLECULE FURIN INHIBITORS FOR TREATING INFECTIOUS DISEASES” (BP Asset V, Inc., priority 2019, published 2023)
